Test results as given in patent US20250282799A1, “SUBSTITUTED PYRIDO[4,3-d]PYRIMIDINES AS KRAS MODULATORS” (Alterome Therapeutics, Inc., priority 2023, published 2025).

Test system: KRAS G12V dependent lung adenocarcinoma cell line, NCI-H441
Assay: Cellular pERK (Thr202/Tyr204) FRET/HTRF assay
Type: cell-based
Details: Homo sapiens, NCI-H441, cellular pERK (Thr202/Tyr204) HTRF, NCI-H441 cells
In short: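 NCI-H441, overnight plating → cpd 1 hr, 37 °C/5% CO2; DMSO neg ctrl. Lyse (phosphatase inhibitors), add donor/acceptor Abs, RT incubation, HTRF read. IC50 by curve fit.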

Row | IC50 [nM] | Compound
1 | 50 to 500 | [2H]C([2H])([2H])Oc1c(F)c(F)cc2cccc(-c3ncc4c(N5CCCC[C@H]6[C@H](F)[C@H]65)nc(OC([2H])([2H])[C@@]56CCCN5C[C@H](F)C6)nc4c3F)c12 [Example 109, 7-(6,7-difluoro-8-(methoxy-d3)naphthalen-1-yl)-8-fluoro-4-((1S,7R,8S)-8-fluoro-2-azabicyclo[5.1.0]octan-2-yl)-2-(((2R,7aS)-2-fluorotetrahydro-1H-pyrrolizin-7a(5H)-yl)methoxy-d2)pyrido[4,3-d]pyrimidine]
2 | < 50 | C#Cc1c(F)ccc2cc(N)cc(-c3ncc4c(N5CCOC[C@H]6[C@H](F)[C@H]65)nc(OC[C@@]56CCCN5CC5(CC5)C6)nc4c3F)c12 [Example 187, 4-(2-(((S)-dihydro-1′H,3′H-spiro[cyclopropane-1,2′-pyrrolizin]-7a′(5′H)-yl)methoxy)-8-fluoro-4-((1S,7S,8S)-8-fluoro-5-oxa-2-azabicyclo[5.1.0]octan-2-yl)pyrido[4,3-d]pyrimidin-7-yl)-5-ethynyl-6-fluoronaphthalen-2-amine]
3 | 50 to 500 | [2H]C([2H])([2H])Oc1c(F)c(F)c(F)c2cccc(-c3ncc4c(N5CCOC[C@H]6[C@H](F)[C@H]65)nc(OC([2H])([2H])[C@@]56CCCN5C[C@H](F)C6)nc4c3F)c12 [Example 123, (1S,7S,8S)-8-fluoro-2-(8-fluoro-2-(((2R,7aS)-2-fluorotetrahydro-1H-pyrrolizin-7a(5H)-yl)methoxy-d2)-7-(5,6,7-trifluoro-8-(methoxy-d3)naphthalen-1-yl)pyrido[4,3-d]pyrimidin-4-yl)-5-oxa-2-azabicyclo[5.1.0]octane]
4 | 500 to 10000 | [2H]C([2H])(Oc1nc(N2CCOC[C@@H]3[C@@H](F)[C@@H]32)c2cc(Cl)c(-c3cc(N)cc(C)c3C(F)(F)F)c(F)c2n1)[C@@]12CCCN1C[C@H](F)C2 [Example 181, 3-(6-chloro-8-fluoro-4-((1R,7R,8R)-8-fluoro-5-oxa-2-azabicyclo[5.1.0]octan-2-yl)-2-(((2R,7aS)-2-fluorotetrahydro-1H-pyrrolizin-7a(5H)-yl)methoxy-d2)quinazolin-7-yl)-5-methyl-4-(trifluoromethyl)aniline]
5 | < 50 | [2H]C([2H])(Oc1nc(N2CCOC[C@H]3[C@H](F)[C@H]32)c2cnc(-c3cc(O)cc(Cl)c3C(F)(F)F)c(F)c2n1)[C@@]12CCCN1C[C@H](F)C2 [Example 298, 3-chloro-5-(8-fluoro-4-((1S,7S,8S)-8-fluoro-5-oxa-2-azabicyclo[5.1.0]octan-2-yl)-2-(((2R,7aS)-2-fluorotetrahydro-1H-pyrrolizin-7a(5H)-yl)methoxy-d2)pyrido[4,3-d]pyrimidin-7-yl)-4-(trifluoromethyl)phenol]
6 | < 50 | [2H]C([2H])(Oc1nc(N2CCOC[C@H]3[C@H](F)[C@H]32)c2cnc(-c3cc(N)cc4cccc(C#C)c34)c(F)c2n1)[C@@]12CCCN1[C@H](C)[C@H](F)C2 [Example 338, 5-ethynyl-4-(8-fluoro-2-(((2R,3R,7aS)-2-fluoro-3-methyltetrahydro-1H-pyrrolizin-7a(5H)-yl)methoxy-d2)-4-((1S,7S,8S)-8-fluoro-5-oxa-2-azabicyclo[5.1.0]octan-2-yl)pyrido[4,3-d]pyrimidin-7-yl)naphthalen-2-amine]
7 | < 50 | [2H]C([2H])(Oc1nc(N2CCCC[C@H]3[C@H](F)[C@H]32)c2cnc(-c3cc(N)cc4ccc(C)c(C#C)c34)c(F)c2n1)[C@@]12CCCN1[C@H](C)[C@H](F)C2 [Example 417, 5-Ethynyl-4-(8-fluoro-2-(((2R,3R,7aS)-2-fluoro-3-methyltetrahydro-1H-pyrrolizin-7a(5H)-yl)methoxy-d2)-4-((1S,7R,8S)-8-fluoro-2-azabicyclo[5.1.0]octan-2-yl)pyrido[4,3-d]pyrimidin-7-yl)-6-methylnaphthalen-2-amine]
8 | < 50 | [2H]C([2H])([2H])Oc1c(F)cc(F)c2cc(N)cc(-c3ncc4c(N5CCCC[C@H]6[C@H](F)[C@H]65)nc(OC([2H])([2H])[C@@]56CCCN5C[C@H](F)C6)nc4c3F)c12 [Example 141, 6,8-difluoro-4-(8-fluoro-4-((1S,7R,8S)-8-fluoro-2-azabicyclo[5.1.0]octan-2-yl)-2-(((2R,7aS)-2-fluorotetrahydro-1H-pyrrolizin-7a(5H)-yl)methoxy-d2)pyrido[4,3-d]pyrimidin-7-yl)-5-(methoxy-d3)naphthalen-2-amine]
9 | 50 to 500 | [2H]C([2H])(Oc1nc(N2CCOC[C@H]3[C@H](F)[C@H]32)c2cnc(-c3cc(N)cc(C4CC4)c3C(F)(F)F)c(F)c2n1)[C@@]12CCCN1C[C@H](F)C2 [Example 165, 3-cyclopropyl-5-(8-fluoro-4-((1S,7S,8S)-8-fluoro-5-oxa-2-azabicyclo[5.1.0]octan-2-yl)-2-(((2R,7aS)-2-fluorotetrahydro-1H-pyrrolizin-7a(5H)-yl)methoxy-d2)pyrido[4,3-d]pyrimidin-7-yl)-4-(trifluoromethyl)aniline]
10 | 50 to 500 | C#Cc1cccc2cc(N)cc(-c3ncc4c(N5CCOC[C@@H]6[C@@H](Cl)[C@@H]65)nc(OC[C@@H]5CCCN5C)nc4c3F)c12 [Example 327, 4-(4-((1R,7R,8R)-8-chloro-5-oxa-2-azabicyclo[5.1.0]octan-2-yl)-8-fluoro-2-(((S)-1-methylpyrrolidin-2-yl)methoxy)pyrido[4,3-d]pyrimidin-7-yl)-5-ethynylnaphthalen-2-amine]
11 | < 50 | C#Cc1c(F)ccc2cc(N)cc(-c3ncc4c(N5CCOC[C@H]6[C@H](F)[C@H]65)nc(OC[C@]56C[C@@]7(C[C@H]7F)CN5CCC65CC5)nc4c3F)c12 (single isomer, unassigned) [Example 233]
12 | 50 to 500 | [2H]C([2H])(Oc1nc(N2CC[C@H](C#N)C[C@@H]3[C@H](F)[C@@H]32)c2cnc(-c3cc(N)cc4ccc(F)c(C#C)c34)c(F)c2n1)[C@@]12CCCN1C[C@H](F)C2 (stereo in doubt) [Example 309, (1R,SR,7S,8S)-2-(7-(3-amino-8-ethynyl-7-fluoronaphthalen-1-yl)-8-fluoro-2-(((2R,7aS)-2-fluorotetrahydro-1H-pyrrolizin-7a(5H)-yl)methoxy-d2)pyrido[4,3-d]pyrimidin-4-yl)-8-fluoro-2-azabicyclo[5.1.0]octane-5-carbonitrile]
13 | 50 to 500 | [2H]C([2H])(Oc1nc(N2CCCOC3C2C3(Cl)Cl)c2cnc(-c3cc(N)cc4ccc(F)c(C#C)c34)c(F)c2n1)[C@@]12CCCN1C[C@H](F)C2 (stereo partly drawn) [Example 292, 4-(4-(8,8-dichloro-2-oxa-6-azabicyclo[5.1.0]octan-6-yl)-8-fluoro-2-(((2R,7aS)-2-fluorotetrahydro-1H-pyrrolizin-7a(5H)-yl)methoxy-d2)pyrido[4,3-d]pyrimidin-7-yl)-5-ethynyl-6-fluoronaphthalen-2-amine]
14 | < 50 | [2H]C([2H])(Oc1nc(N2CCOC[C@H]3[C@H](F)[C@H]32)c2cnc(-c3cc(N)cc4ccc(F)c(C#C)c34)c(F)c2n1)[C@@]12CCCN1C[C@H](CF)C2 (single isomer, unassigned) [Example 266]
15 | < 50 | C#Cc1c(F)ccc2cc(N)cc(-c3ncc4c(N5CCOC[C@H]6[C@H](F)[C@H]65)nc(OC[C@@]56CCCN5C/C(=C\F)C6)nc4c3F)c12 [Example 155, 5-Ethynyl-6-fluoro-4-(8-fluoro-4-((1S,7S,8S)-8-fluoro-5-oxa-2-azabicyclo[5.1.0]octan-2-yl)-2-(((S,Z)-2-(fluoromethylene)tetrahydro-1H-pyrrolizin-7a(5H)-yl)methoxy)pyrido[4,3-d]pyrimidin-7-yl)naphthalen-2-amine]
16 | < 50 | [2H]C([2H])(Oc1nc(N2CCOC[C@H]3[C@H](F)[C@H]32)c2cnc(-c3cc(N)cc4ccc(F)c(C#C)c34)c(F)c2n1)[C@@]12CCCN1C[C@H](C#N)C2 [Example 276, (2R,7aS)-7a-(((7-(3-amino-8-ethynyl-7-fluoronaphthalen-1-yl)-8-fluoro-4-((1S,7S,8S)-8-fluoro-5-oxa-2-azabicyclo[5.1.0]octan-2-yl)pyrido[4,3-d]pyrimidin-2-yl)oxy)methyl-d2)hexahydro-1H-pyrrolizine-2-carbonitrile]

Same assay, conditions: Homo sapiens, NCI-H441, cellular pERK HTRF, NCI-H441 (KRAS G12V) cells

Row | IC50 [nM] | Compound
17 | 500 to 10000 | [2H]C([2H])(Oc1nc(N2CCOC[C@H]3[C@H](F)[C@H]32)c2cnc(-c3cc(N)cc4ccc(F)c(C#C)c34)c(C3CC3)c2n1)[C@@]12CCCN1C[C@H](F)C2 [Example 452, 4-(8-cyclopropyl-4-((1S,7S,8S)-8-fluoro-5-oxa-2-azabicyclo[5.1.0]octan-2-yl)-2-(((2R,7aS)-2-fluorotetrahydro-1H-pyrrolizin-7a(5H)-yl)methoxy-d2)pyrido[4,3-d]pyrimidin-7-yl)-5-ethynyl-6-fluoronaphthalen-2-amine]

Same assay, conditions: Homo sapiens, NCI-H441, pERK HTRF, NCI-H441 cells (KRAS G12V)

Row | IC50 [nM] | Compound
18 | 500 to 10000 | [2H]C([2H])(Oc1nc(N2CCOC[C@@H]3[C@@H](F)[C@@H]32)c2cnc(-c3cccc4ccc(F)c(C#C)c34)c(F)c2n1)[C@@]12CCCN1C[C@H](F)C2 [Example 46, (1R,7R,8R)-2-(7-(8-ethynyl-7-fluoronaphthalen-1-yl)-8-fluoro-2-(((2R,7aS)-2-fluorotetrahydro-1H-pyrrolizin-7a(5H)-yl)methoxy-d2)pyrido[4,3-d]pyrimidin-4-yl)-8-fluoro-5-oxa-2-azabicyclo[5.1.0]octane]

Same assay, conditions: Homo sapiens; pERK HTRF, NCI-H441 cells (KRAS G12V)

Row | Compound | IC50 [nM]
19 | [2H]C([2H])([2H])Oc1c(F)ccc2cncc(-c3ncc4c(N5CCOC[C@H]6[C@H](F)[C@H]65)nc(OC([2H])([2H])[C@@]56CCCN5C[C@H](F)C6)nc4c3F)c12 [Example 84, (1S,7S,8S)-8-Fluoro-2-(8-fluoro-7-(6-fluoro-5-(methoxy-d3)isoquinolin-4-yl)-2-(((2R,7aS)-2-fluorotetrahydro-1H-pyrrolizin-7a(5H)-yl)methoxy-d2)pyrido[4,3-d]pyrimidin-4-yl)-5-oxa-2-azabicyclo[5.1.0]octane] | < 50
